The target of one test is Kallikrein-7 (Homo sapiens, UniProt P49862). Nature of the test: Inhibition of thermolysin activated recombinant human C-terminal 10-His tagged KLK7 preincubated for 10 mins followed by MOCAc-Arg-Pro-Lys-Pro-Val-Glu-Nva-Trp-Arg-Lys(Dnp)-NH2 peptide substrate addition measured after 30 mins by fluorescence analysis.
Another test has as its target Trypsin (Homo sapiens, UniProt P07477+P07478+P35030). Nature of the test: Inhibition of human trypsin preincubated for 10 mins followed by Boc-Gln-Ala-Arg-MCA peptide substrate addition measured after 30 mins by fluorescence analysis. Type of test: protein assay.
The target of the next test is T1, Kallikrein-5 (Homo sapiens, UniProt Q9Y337).
T1 sequence (Q9Y337 whole entry): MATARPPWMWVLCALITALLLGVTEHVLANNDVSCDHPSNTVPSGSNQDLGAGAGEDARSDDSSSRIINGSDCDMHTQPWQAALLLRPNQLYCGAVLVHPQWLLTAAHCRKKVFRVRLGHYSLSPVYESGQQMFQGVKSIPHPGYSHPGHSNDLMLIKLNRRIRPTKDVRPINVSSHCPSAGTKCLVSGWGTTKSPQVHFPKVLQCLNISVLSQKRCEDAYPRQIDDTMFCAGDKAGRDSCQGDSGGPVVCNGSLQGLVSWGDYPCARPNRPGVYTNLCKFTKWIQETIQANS
Nature of the test: Inhibition of recombinant human C-terminal 10-His tagged KLK5 preincubated for 10 mins followed by Boc-Val-Pro-Arg-MCA peptide substrate addition measured after 30 mins by fluorescence analysis.

A short description of test [1]: Inhibition of human chymotrypsin preincubated for 10 mins followed by Suc-Ala-Ala-Pro-Phe-MCA peptide substrate addition measured after 30 mins by fluorescence analysis.

Chain of Kallikrein-7 (P49862 whole entry): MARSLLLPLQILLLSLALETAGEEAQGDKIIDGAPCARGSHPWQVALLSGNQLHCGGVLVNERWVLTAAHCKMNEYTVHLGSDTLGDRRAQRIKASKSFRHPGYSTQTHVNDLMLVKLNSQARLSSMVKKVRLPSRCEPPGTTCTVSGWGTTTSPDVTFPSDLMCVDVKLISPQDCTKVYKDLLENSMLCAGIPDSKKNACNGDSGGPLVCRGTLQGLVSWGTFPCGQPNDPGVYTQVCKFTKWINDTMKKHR

As for `COc1ccc(Cl)cc1C[C@@H]1CN/C(=N\N(C)C)CN(CC(=O)Nc2ccccc2)C1=O`, the IC50 (commonly the concentration at which inhibition is half-maximal) at Kallikrein-7 amounted to 4.5 µM. Turning to `COc1ccc(Cl)cc1C[C@@H]1CN/C(=N\Oc2c(F)cccc2F)CN(CC(=O)Nc2cccc(C(=O)O)c2)C1=O`, the IC50 at Kallikrein-7 turned out to be 5.4 µM. On the same count and under the same terms, the same measure for `CO/N=C1/CN(CC(=O)Nc2cccc(C(=O)O)c2)C(=O)[C@H](Cc2cc(Cl)ccc2OC)CN1`: 14 µM; for `COc1ccc(Cl)cc1C[C@@H]1CN/C(=N\Oc2cc(F)cc(F)c2)CN(CC(=O)Nc2ccc(O)c(C(=O)O)c2)C1=O`: 5.8 µM.

With `COc1ccc(Cl)cc1C[C@H]1CN/C(=N\Oc2cc(F)cc(F)c2)CN(CC(=O)Nc2ccc(O)c(C(=O)O)c2)C1=O`, the IC50 on Kallikrein-7 was above 30 µM.

Consider `COc1ccc(Cl)cc1C[C@@H]1CN/C(=N\N(C)C)CN(CC(=O)Nc2cccc(S(C)(=O)=O)c2)C1=O`, for which the IC50 against Trypsin was above 30 µM; at Kallikrein-5, above 30 µM; in test [1], 24 µM; on Kallikrein-7, 0.82 µM. For `COc1ccc(Cl)cc1C[C@@H]1CN/C(=N\N(C)C)CN(CC(=O)Nc2ccccn2)C1=O`, the IC50 at Kallikrein-7 was determined as 16 µM.

As for `COc1ccc(Cl)cc1C[C@@H]1CN/C(=N\O)CN(CC(=O)Nc2cccc(C(=O)O)c2)C1=O`, the IC50 at Kallikrein-7 was above 30 µM. Still for that read-out and setting: the result for `COc1ccc(Cl)cc1C[C@@H]1CN/C(=N\OCC(C)C)CN(CC(=O)Nc2cccc(C(=O)O)c2)C1=O` reads above 30 µM. Turning to `COc1ccc(Cl)cc1C[C@@H]1CN/C(=N\N(C)C)CN(CC(=O)Nc2ccc(C(=O)O)cc2)C1=O`, the IC50 on Kallikrein-7 was 30 µM.

As to `CCO/N=C1/CN(CC(=O)Nc2cccc(C(=O)O)c2)C(=O)[C@H](Cc2cc(Cl)ccc2OC)CN1`, the IC50 on Kallikrein-7 was 13 µM. Same read-out and setting: the same measure for `COc1ccc(Cl)cc1C[C@@H]1CNC(=O)CN(CC(=O)Nc2ccc(O)c(C(=O)O)c2)C1=O`: above 30 µM; for `COc1ccc(Cl)cc1C[C@@H]1CN/C(=N\N(C)C)CN(CC(=O)Nc2cccnc2)C1=O`: 9 µM. As for `COc1ccc(Cl)cc1C[C@@H]1CN/C(=N\N(C)C)CN(CC(=O)Nc2cccc(C(=O)O)c2)C1=O.Cl`, the IC50 was above 30 µM at Trypsin, above 30 µM at Kallikrein-5, 30 µM in test [1] and 1.9 µM at Kallikrein-7.

For `COc1ccc(Cl)cc1C[C@@H]1CN/C(=N\N(C)C)CN(CC(=O)Nc2ccccc2C(=O)O)C1=O`, the IC50 on Kallikrein-7 was above 30 µM.

(Values after ChEMBL document CHEMBL4177663, “Discovery and structure-activity relationship study of 1,3,6-trisubstituted 1,4-diazepane-7-ones as novel human kallikrein 7 inhibitors” (Bioorg Med Chem Lett, 2017).)
